Source: patent US6894049B1, “Platinum complexes as antitumor agents” (AnorMED, Inc., priority 2000, dated 2005)

Legend:
[1] = test system: CH1; test: Cell proliferation, human cancer cell line CH1; format: cell-based; settings: read-out: concentration necessary to achieve a 50% decrease in cell proliferation
Description: (§1) The complexes of the invention were tested against human cancer cell lines grown in cell culture according to established testing procedures (described by Holford, et al., British J. Cancer 1998 77(3) 366-373). The results are given in concentrations (μM) necessary to achieve a 50% decrease in cell proliferation, with resistance factors in brackets for the cisplatin-resistant cell lines.

[2] = test system: 41MR; test: Cell proliferation, cisplatin-resistant human cancer cell line 41MR; format: cell-based; settings: for IC50: 41MR, read-out: concentration necessary to achieve a 50% decrease in cell proliferation; for resistance factor: 41MR/41M, in brackets
Description: as §1

[3] = test system: 41M; test: Cell proliferation, human cancer cell line 41M; format: cell-based; settings: read-out: concentration necessary to achieve a 50% decrease in cell proliferation
Description: as §1

[4] = test system: A2780; test: Cell proliferation, human cancer cell line A2780; format: cell-based; settings: read-out: concentration necessary to achieve a 50% decrease in cell proliferation
Description: as §1

[5] = test system: A2780R; test: Cell proliferation, cisplatin-resistant human cancer cell line A2780R; format: cell-based; settings: for resistance factor: A2780R/A2780, in brackets; for IC50: A2780R, read-out: concentration necessary to achieve a 50% decrease in cell proliferation
Description: as §1

[6] = test system: CH1R; test: Cell proliferation, cisplatin-resistant human cancer cell line CH1R; format: cell-based; settings: for resistance factor: CH1R/CH1, in brackets; for IC50: CH1R, read-out: concentration necessary to achieve a 50% decrease in cell proliferation
Description: as §1

[7] = Maximum tolerated dose in mice; format: in vivo
[8] = background statement; cited from earlier work

Molecule	IC50 [1]	IC50 [2]	IC50 [3]	IC50 [4]	resistance factor [5]	IC50 [5]	resistance factor [6]	IC50 [6]	maximum tolerated dose (MTD) [7]	resistance factor [2]	decrease in resistance factor ([5]; A2780/A2780R, compared to cis-ammine(2-methylpyridine)dichloroplatinum(II))	Aqueous Solubility [8]
Cc1oc(C)[n+]([Pt-2]([NH3+])([Cl])[Cl])c1C [Example 10]	5.2 µM	11.5 µM	11.8 µM	9.8 µM	4.1	40 µM	1.8	9.4 µM				
Cc1cc(C)[n+]([Pt-2]([NH3+])([Cl])[Cl])n1C [Example 2, (SP-4-3)-amminedichloro(1,3,5-trimethylpyrazole)platinum(II)]	9.2 µM	15.5 µM	8.5 µM	8.5 µM	1.8	15.5 µM	1.2	11 µM	greater than 50 mg/Kg	1.8	2.6 fold	
cis-ammine(2-methylpyridine)dichloroplatinum(II) [reference compound]	2.2 µM	6 µM	5.6 µM	2.5 µM	4.8	12 µM	1	2.1 µM		1.1		
Cc1cc(C)[n+]([Pt-2]([NH3+])([Cl])[Cl])[nH]1 [Example 1, (SP-4-3)-amminedichloro(3.5-dimethylpyrazole)platinum(II)]	2.05 µM	4.5 µM	3.5 µM	2.7 µM	3.4	9.2 µM	1.9	3.8 µM		1.3		
Cc1n(C)cc[n+]1[Pt-2]([NH3+])([OH])([OH])([Cl])[Cl] [Example 15]	12 µM	21 µM	23 µM	13.5 µM	> 7.4	> 100 µM	1.4	16.5 µM		0.9		
Cc1cc(C)[n+]([Pt-2]([NH3+])([OH])([OH])([Cl])[Cl])[nH]1 [Example 11, (OC-6-43)amminedichlorodihydroxo-(3.5-dimethylpyrazole)platinum(IV)]	2 µM	8.2 µM	11 µM	7.2 µM	5.1	37 µM	2.5	5 µM				
N.N.[Cl][Pt][Cl] [cisplatin, [PtCl2(NH3)2], reference compound]	0.11 µM	1.2 µM	0.26 µM	0.33 µM		5.2 µM	6.5	0.71 µM	11.3 mg/kg	4.6		
[NH2][Pt]1([NH2])[O]C(=O)C2(CCC2)C(=O)[O]1 [carboplatin, diammine[1,1-cyclobutanedicarboxylato (2-)]-O,O′-platinum(II), reference compound]	1.3 µM	8.8 µM	3.3 µM	1.8 µM		25.9 µM	4.5	6 µM		2.7		14 mg/mL
CCCC(=O)[O][Pt]([NH2])([Cl])([Cl])([NH]C1CCCCC1)[O]C(=O)CCC [bis-butyrato-ammine(cyclohexylamine)dichloroplatinum(IV), reference compound]	0.0066 µM	0.048 µM	0.072 µM				3.7	0.024 µM		0.67		
Cc1ncc[n+]([Pt-2]([NH3+])([Cl])[Cl])c1C [Example 6]	3.2 µM	6.5 µM	6.6 µM	3.4 µM	5.1	17.5 µM	1.7	5.4 µM				
